According to ChEMBL document CHEMBL4382199, “Application of Virtual Screening to the Identification of New LpxC Inhibitor Chemotypes, Oxazolidinone and Isoxazoline” (J Med Chem, 2018):
pKd: −log10 of the molar value. Values after ≈ are worked out from the molar mass of the structure shown. Active and inactive are the calls of the source. No cut-off for these calls is given here.

Assays:
[1] = Lipophilicity, log D of the compound at pH 7.4; format: physicochemical; conditions: buffer
Klebsiella pneumoniae [2] = experiment: Inhibition of LpxC in Klebsiella pneumoniae ATCC 43816 assessed as potentiation factor by measuring ratio of MIC of compound alone to MIC of compound in presence of rifampicin after 20 hrs by CLSI protocol-based microdilution assay
Pseudomonas aeruginosa [3] = experiment: Antimicrobial activity against Pseudomonas aeruginosa ATCC 27853 after 20 hrs by CLSI protocol-based microdilution assay; format: functional; conditions: ATCC 27853, 20 h
Klebsiella pneumoniae [4] = experiment: Inhibition of LpxC in Klebsiella pneumoniae ATCC 43816 assessed as potentiation factor by measuring ratio of MIC of compound alone to MIC of compound in presence of vancomycin after 20 hrs by CLSI protocol-based microdilution assay
Escherichia coli = experiment: Antimicrobial activity against Escherichia coli ATCC 25922 after 20 hrs by CLSI protocol-based microdilution assay; format: functional; conditions: ATCC 25922, 20 h
[5] = target: T1, UDP-3-O-acyl-N-acetylglucosamine deacetylase (Pseudomonas aeruginosa (strain ATCC 15692 / PAO1 / 1C / PRS 101 / LMG12228), UniProt P47205); experiment: Binding affinity to Pseudomonas aeruginosa PAO1 NB52019 LpxC after 60 to 420 secs by SPR method
T1 sequence (P47205 whole entry): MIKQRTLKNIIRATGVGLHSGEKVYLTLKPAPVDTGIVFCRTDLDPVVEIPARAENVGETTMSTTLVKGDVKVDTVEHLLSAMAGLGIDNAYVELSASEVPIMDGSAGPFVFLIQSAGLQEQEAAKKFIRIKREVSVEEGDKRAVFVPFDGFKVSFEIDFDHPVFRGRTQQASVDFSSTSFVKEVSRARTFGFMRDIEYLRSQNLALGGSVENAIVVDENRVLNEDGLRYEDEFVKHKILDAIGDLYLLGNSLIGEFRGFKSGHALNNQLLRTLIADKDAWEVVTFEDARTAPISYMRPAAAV

Klebsiella pneumoniae [6] = experiment: Antimicrobial activity against Klebsiella pneumoniae ATCC 43816 after 20 hrs by CLSI protocol-based microdilution assay; format: functional; conditions: ATCC 43816, 20 h
Klebsiella pneumoniae [7] = experiment: Inhibition of LpxC in Klebsiella pneumoniae ATCC 43816 assessed as antibacterial activity after 20 hrs in presence of rifampicin by CLSI protocol-based microdilution assay
Klebsiella pneumoniae [8] = experiment: Inhibition of LpxC in Klebsiella pneumoniae ATCC 43816 assessed as antibacterial activity after 20 hrs in presence of vancomycin by CLSI protocol-based microdilution assay
Klebsiella pneumoniae [9] = experiment: Antibacterial activity against Klebsiella pneumoniae infected in lung infection mouse model assessed as log reduction in bacterial load in lungs at 200 mg/kg, sc dosed every 6 hrs measured after 48 hrs post first treatment; format: functional, organism-based
Klebsiella pneumoniae [10] = experiment: Antibacterial activity against Klebsiella pneumoniae infected in mouse model of lung infection assessed as reduction in bacterial load in lung at 200 mg/kg, sc dosed every 6 hrs and measured after 48 hrs post first treatment; format: functional, organism-based
[11] = Clearance in dog at 10 mg/kg, iv; format: ADME, organism-based, Canis lupus familiaris; conditions: in vivo
[12] = Solubility of the compound at pH 7.4; format: physicochemical; conditions: buffer
[13] = Half life in dog at 10 mg/kg, iv; format: ADME, organism-based, Canis lupus familiaris; conditions: in vivo
[14] = Protein binding in human plasma; format: ADME, cell-free; conditions: read-out: PPB (converted)
[15] = Clearance in rat at 5 mg/kg, iv; format: ADME, organism-based; conditions: in vivo
[16] = Solubility of the compound at pH 9; format: physicochemical; conditions: buffer
[17] = Protein binding in mouse plasma; format: ADME, cell-free; conditions: read-out: PPB (converted)
[18] = Half life in mouse at 60 mg/kg, iv; format: ADME, organism-based; conditions: in vivo
[19] = Volume of distribution at steady state in mouse at 60 mg/kg, iv; format: ADME, organism-based; conditions: in vivo, read-out: Vdss
[20] = Volume of distribution at steady state in dog at 10 mg/kg, iv; format: ADME, organism-based, Canis lupus familiaris; conditions: in vivo, read-out: Vdss
[21] = Clearance in mouse at 60 mg/kg, iv; format: ADME, organism-based; conditions: in vivo
[22] = Volume of distribution at steady state in rat at 5 mg/kg, iv; format: ADME, organism-based; conditions: in vivo, read-out: Vdss
Pseudomonas aeruginosa [23] = experiment: Antimicrobial activity against Pseudomonas aeruginosa infected in mouse model of neutropenic thigh infection assessed reduction in bacterial levels in thigh at 160 mg/kg/day, sc administered 2 hrs post infection every 6 hrs for 24 hrs; format: functional, organism-based
Pseudomonas aeruginosa [24] = experiment: Antimicrobial activity against Pseudomonas aeruginosa infected in mouse model of neutropenic thigh infection assessed reduction in bacterial levels in thigh at 105 mg/kg/day, sc administered 2 hrs post infection every 6 hrs for 24 hrs; format: functional, organism-based
[25] = Protein binding in dog plasma; format: ADME, cell-free, Canis lupus familiaris; conditions: read-out: PPB (converted)
Klebsiella pneumoniae [26] = experiment: Antibacterial activity against Klebsiella pneumoniae infected in mouse model of lung infection assessed as reduction in bacterial load in lung at 20 mg/kg, sc dosed every 6 hrs and measured after 48 hrs post first treatment; format: functional
[27] = Protein binding in rat plasma; format: ADME, cell-free; conditions: read-out: PPB (converted)
Klebsiella pneumoniae [28] = experiment: Antibacterial activity against Klebsiella pneumoniae infected in mouse model of lung infection assessed as reduction in bacterial load in lung at 20 mg/kg, sc dosed every 6 hrs co-treated with 200 mg/kg vancomycin and measured after 48 hrs post first treatment (reference value: 4.5 log10CFU/g); format: functional
[29] = Half life in rat at 5 mg/kg, iv; format: ADME, organism-based; conditions: in vivo

Row | Compound | logD [1] | MIC (Pseudomonas aeruginosa [3]) | MIC (Escherichia coli) | pKd [5] | MIC (Klebsiella pneumoniae [6]) | MIC (Klebsiella pneumoniae [7]) | MIC (Klebsiella pneumoniae [8]) | further results
1 | CC(C)(O)[C@H]1C[C@H](C#Cc2ccc(N3C[C@H](C[C@](C)(C(=O)NO)S(C)(=O)=O)OC3=O)cc2)C1 | 1.6 | 1 µg/mL (≈ 2.09 µM) | 0.5 µg/mL (≈ 1.04 µM) | 9.70 | 1 µg/mL (≈ 2.09 µM) | 0.5 µg/mL | 1 µg/mL | fold change (FC) (Klebsiella pneumoniae [2]): 2; fold change (FC) (Klebsiella pneumoniae [4]): 1
2 | CC#Cc1ccc(N2C[C@H](C[C@](C)(C(=O)NO)S(C)(=O)=O)OC2=O)cc1 | 1.4 | 0.5 µg/mL (≈ 1.31 µM) | 2 µg/mL (≈ 5.26 µM) | 10.20 | 16 µg/mL (≈ 42.1 µM) | 0.25 µg/mL | 4 µg/mL | fold change (FC) (Klebsiella pneumoniae [2]): 64; fold change (FC) (Klebsiella pneumoniae [4]): 4
3 | C[C@@](C[C@H]1CN(c2ccc(Br)cc2)C(=O)O1)(C(=O)NO)S(C)(=O)=O | 1 | 0.5 µg/mL (≈ 1.19 µM) | > 64 µg/mL | 9.68 | > 64 µg/mL | – | – | –
4 | CCCc1ccc(C2=NO[C@@H](C[C@](C)(C(=O)NO)S(C)(=O)=O)C2)cc1 | 1.7 | 1 µg/mL (≈ 2.71 µM) | 4 µg/mL (≈ 10.9 µM) | 9.70 | 16 µg/mL (≈ 43.4 µM) | – | – | –
5 | C/C=C/c1ccc(C2=NO[C@@H](C[C@](C)(C(=O)NO)S(C)(=O)=O)C2)cc1 | 2 | 1 µg/mL (≈ 2.73 µM) | 2 µg/mL (≈ 5.46 µM) | 9.52 | 16 µg/mL (≈ 43.7 µM) | – | – | –
6 | C[C@@](C[C@H]1CN(c2ccc(-c3ccccc3)cc2)C(=O)O1)(C(=O)NO)S(C)(=O)=O | 2.3 | 1 µg/mL (≈ 2.39 µM) | 0.25 µg/mL (≈ 0.597 µM) | 10.59 | 4 µg/mL (≈ 9.56 µM) | – | – | –
7 | C[C@@H](O)Cc1ccc(-c2ccc(N3C[C@H](C[C@](C)(C(=O)NO)S(C)(=O)=O)OC3=O)cc2)cc1 | 1.2 | 2 µg/mL (≈ 4.2 µM) | 0.25 µg/mL (≈ 0.525 µM) | 9.92 | 1 µg/mL (≈ 2.1 µM) | – | – | –
8 | CCCc1ccc(N2C[C@H](C[C@](C)(C(=O)NO)S(C)(=O)=O)OC2=O)cc1 | 1.6 | 0.5 µg/mL (≈ 1.3 µM) | 4 µg/mL (≈ 10.4 µM) | 9.77 | 32 µg/mL (≈ 83.2 µM) | 1 µg/mL | 8 µg/mL | fold change (FC) (Klebsiella pneumoniae [2]): 32; fold change (FC) (Klebsiella pneumoniae [4]): 4
9 | C[C@@](C[C@H]1CC(c2ccc(Br)cc2)=NO1)(C(=O)NO)S(C)(=O)=O | 1.2 | 4 µg/mL (≈ 9.87 µM) | 32 µg/mL (≈ 79 µM) | 8.59 | > 64 µg/mL | – | – | –
10 | CC#Cc1ccc(C2=NO[C@@H](C[C@](C)(C(=O)NO)S(C)(=O)=O)C2)cc1 | 1.4 | 0.5 µg/mL (≈ 1.37 µM) | 1 µg/mL (≈ 2.74 µM) | 9.36 | 8 µg/mL (≈ 22 µM) | 0.25 µg/mL | 2 µg/mL | fold change (FC) (Klebsiella pneumoniae [2]): 32; fold change (FC) (Klebsiella pneumoniae [4]): 4
11 | C[C@@](C[C@H]1CN(c2ccc(C3CC3)cc2)C(=O)O1)(C(=O)NO)S(C)(=O)=O | 1.5 | 2 µg/mL (≈ 5.23 µM) | 32 µg/mL (≈ 83.7 µM) | 9.92 | > 64 µg/mL | – | – | –
12 | C[C@@](C[C@H]1CC(c2ccc(C#CC3CC3)cc2)=NO1)(C(=O)NO)S(C)(=O)=O | 2.2 | 1 µg/mL (≈ 2.56 µM) | 0.125 µg/mL (≈ 0.32 µM) | 9.77 | 0.5 µg/mL (≈ 1.28 µM) | 0.03 µg/mL | 0.125 µg/mL | fold change (FC) (Klebsiella pneumoniae [2]): 16; fold change (FC) (Klebsiella pneumoniae [4]): 4
13 | CO[C@H]1/C=C/O[C@@]2(C)Oc3c(C)c(O)c4c(O)c(c(/C=N/N5CCN(C)CC5)c(O)c4c3C2=O)NC(=O)/C(C)=C\C=C\[C@H](C)[C@H](O)[C@@H](C)[C@@H](O)[C@@H](C)[C@H](OC(C)=O)[C@@H]1C [RIFAMPIN] | – | – | – | – | 32 µg/mL (≈ 38.9 µM) | – | – | –
14 | CN[C@H](CC(C)C)C(=O)N[C@H]1C(=O)N[C@@H](CC(N)=O)C(=O)N[C@H]2C(=O)N[C@H]3C(=O)N[C@H](C(=O)N[C@H](C(=O)O)c4cc(O)cc(O)c4-c4cc3ccc4O)[C@H](O)c3ccc(c(Cl)c3)Oc3cc2cc(c3O[C@@H]2O[C@H](CO)[C@@H](O)[C@H](O)[C@H]2O[C@H]2C[C@](C)(N)[C@H](O)[C@H](C)O2)Oc2ccc(cc2Cl)[C@H]1O [VANCOMYCIN] | – | – | – | – | > 128 µg/mL | – | – | Activity (Klebsiella pneumoniae [9]): inactive; Activity (Klebsiella pneumoniae [10]): inactive
15 | C[C@@H](O)[C@H](NC(=O)c1ccc(C#Cc2ccc(CN3CCOCC3)cc2)cc1)C(=O)NO | – | 2 µg/mL (≈ 4.57 µM) | 0.125 µg/mL (≈ 0.286 µM) | – | 0.5 µg/mL (≈ 1.14 µM) | – | – | –
16 | C/C=C/c1ccc(N2C[C@H](C[C@](C)(C(=O)NO)S(C)(=O)=O)OC2=O)cc1 | 1.4 | 1 µg/mL (≈ 2.61 µM) | 4 µg/mL (≈ 10.5 µM) | 10.00 | 32 µg/mL (≈ 83.7 µM) | – | – | –
17 | C[C@@](C[C@H]1CN(c2ccc(-c3ccccc3)cn2)C(=O)O1)(C(=O)NO)S(C)(=O)=O | 1.8 | 2 µg/mL (≈ 4.77 µM) | 2 µg/mL (≈ 4.77 µM) | 9.92 | 32 µg/mL (≈ 76.3 µM) | – | – | –
18 | C[C@@](C[C@H]1CN(c2ccc(C#CC3CC3)cc2)C(=O)O1)(C(=O)NO)S(C)(=O)=O | 1.9 | 0.5 µg/mL (≈ 1.23 µM) | 0.125 µg/mL (≈ 0.308 µM) | – | 1 µg/mL (≈ 2.46 µM) | 0.06 µg/mL | 0.25 µg/mL | clearance [11]: 26 mL/min/kg; solubility [12]: 126 µg/mL (≈ 310 µM); half-life [13]: 42 min; fraction unbound [14]: 0.14; clearance [15]: 24 mL/min/kg; solubility [16]: > 20000 µg/mL; fraction unbound [17]: 0.13; half-life [18]: 330 min; Vd [19]: 1.6 L/kg; Vd [20]: 0.8 L/kg; clearance [21]: 49 mL/min/kg; Vd [22]: 1 L/kg; Activity (Pseudomonas aeruginosa [23]): Active; Activity (Pseudomonas aeruginosa [24]): Active; fraction unbound [25]: 0.14; Activity (Klebsiella pneumoniae [26]): 4.5 log10CFU/g; fraction unbound [27]: 0.11; Activity (Klebsiella pneumoniae [28]): 2.5 log10CFU/g; half-life [29]: 54 min
